The results in this text go back to ChEMBL document CHEMBL1201862, “PubChem BioAssay data set” (2004).

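How tested: cells in 96-well plates exposed to compound for 48 hours at five concentrations. Here, GI50 denotes the concentration required for 50% inhibition of growth.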 The source made the active and inactive calls. Cut-off read from the data, not from the text of the source: active = GI50 up to about 1.1 µM and inactive = higher.

Common to all, as to assay: growth of human tumour cells (NCI), 48 h
Assay [1] has as its system UO-31.
For assay [2], the system named is UACC-257.
For assay [3], the system named is HCT-15.
Assay [4] deals with SR.
Assay [5] relates to SK-MEL-28.
Assay [6] concerns Malme-3M.
Assay [7] relates to MCF7.
The test system of assay [8] is UACC-62.
The test system of assay [9] is HOP-92.
For assay [10], the system named is 786-0.
In assay [11] the test system is A498.
For assay [12], the system named is HCT-116.
Assay [13] has as its system OVCAR-4.
For assay [14], the system named is SN12C.
Assay [15] deals with SNB-19.
The test system of assay [16] is OVCAR-3.
For assay [17], the system named is HL-60.
In assay [18] the test system is OVCAR-5.
Assay [19] has as its system Hs-578T.
For assay [20], the system named is SF-295.

Consider `CO[P@@]1(=O)O[C@@H](c2ccccc2)[C@H](O)[C@@]1(O)c1ccccc1`, for which the GI50 in [1] was > 100 µM (inactive); in assay [2], > 100 µM (inactive); in [3] it was greater than 100 µM; in assay [4] it was 10.2 µM (inactive); in assay [5], > 100 µM (inactive); in assay [6], > 100 µM (inactive). The GI50 in [7], in assay [8], in [9], in assay [10], in assay [11] and in assay [12] was > 100 µM (inactive) in each case. Further, the GI50 in [13], in assay [14], in [15], in assay [16], in [17] and in assay [18] was > 100 µM (inactive) in each case. In addition, the GI50 is 91.8 µM (inactive) in assay [19] and > 100 µM (inactive) in assay [20].

On to `CC(=O)c1ccc2c(c1)CC1(C2)Cc2ccccc2C1=O` (stereo not given), for which the GI50 in [1] was 42.4 µM (inactive); in assay [2], 15.5 µM (inactive); in assay [3], 51.5 µM; in assay [4], 20.8 µM (inactive); in assay [5] it was 64.3 µM (inactive); in assay [6], 28.4 µM (inactive). Also, the GI50 is 26.7 µM (inactive) in [7]; 55.6 µM (inactive) in assay [8]; 22.4 µM (inactive) in assay [9]; 77.8 µM (inactive) in assay [10]; > 100 µM (inactive) in assay [11]; 44.1 µM (inactive) in assay [12]. Besides, the GI50 in [13] is 31.4 µM (inactive); in [14] it was 69 µM (inactive); in [15], > 100 µM (inactive); in assay [16] it was 50.9 µM (inactive); in [17] it was 25.1 µM (inactive); in assay [18], > 100 µM (inactive). For the same molecule, the GI50 is 39.8 µM (inactive) in assay [19] and 56 µM (inactive) in [20].

On to `S=c1ssc2c3ssc(=S)c3n(Cc3ccccc3)c12`, for which the GI50 in [1] is 20.3 µM (inactive); in assay [2], > 100 µM (inactive); in [3], 39.3 µM; in assay [4], 0.67 µM (active); in [5] it was > 100 µM (inactive); in assay [6], > 100 µM (inactive). For the same molecule, the GI50 is 81.3 µM (inactive) in assay [7]; 40.3 µM (inactive) in [8]; > 100 µM (inactive) in assay [9]; 37.3 µM (inactive) in [10]; > 100 µM (inactive) in assay [11]; > 100 µM (inactive) in [12]. Further, the GI50 in assay [13], in assay [14], in assay [15], in assay [16], in assay [17] and in assay [18] was > 100 µM (inactive) in each case. Also, the GI50 in assay [19] and in assay [20] was > 100 µM (inactive) in each case.

`COC(=O)C1(C)CCCC2(C)C3CCC4CC3(C=C4CO)CCC12` (stereo not given): the GI50 in [1] was 32.9 µM (inactive); in assay [2], 41.9 µM (inactive); in assay [3], 17.4 µM; in assay [4] it was 27.6 µM (inactive); in assay [5], 66.7 µM (inactive); in assay [6], 27 µM (inactive). The GI50 in assay [7] is 22.8 µM (inactive); in assay [8] it was > 100 µM (inactive); in [9] it was 55.1 µM (inactive); in [10] it was 43.4 µM (inactive); in assay [11], 87.9 µM (inactive); in [12], 30.6 µM (inactive). In addition, the GI50 in [13] is 68.2 µM (inactive); in assay [14] it was 20.3 µM (inactive); in [15] it was 28.2 µM (inactive); in [16], 42.1 µM (inactive); in assay [17], 20.6 µM (inactive); in assay [18] it was > 100 µM (inactive). In addition, the GI50 in assay [19] was > 100 µM (inactive); in assay [20], 60.4 µM (inactive).

As to `CNC(=O)N(C1=NCC(C)S1)c1ccc(C)c(C)c1` (stereo not given), the GI50 is 8.26 µM (inactive) in assay [1]; 16.1 µM (inactive) in [2]; 2.77 µM in [3]; 3.67 µM (inactive) in assay [4]; 8.49 µM (inactive) in assay [5]; 4.15 µM (inactive) in assay [6]. Moreover, the GI50 is 2.77 µM (inactive) in assay [7]; 3.56 µM (inactive) in [8]; 5.78 µM (inactive) in assay [9]; 4.74 µM (inactive) in assay [10]; 2.99 µM (inactive) in [11]; 3.5 µM (inactive) in assay [12]. Further, the GI50 is 13.6 µM (inactive) in assay [13]; 7.23 µM (inactive) in assay [14]; 6.64 µM (inactive) in [15]; 2.4 µM (inactive) in [16]; 1.17 µM (inactive) in assay [17]; 15.6 µM (inactive) in [18]. The GI50 in assay [19] was 4.31 µM (inactive); in assay [20], 3.17 µM (inactive).

With `Nc1nc(Cl)cc(NCCC2(CO)CCC2)n1`, the GI50 in [1] is > 100 µM (inactive); in [2] it was > 100 µM (inactive); in assay [3], greater than 100 µM; in [4], > 100 µM (inactive); in assay [5], > 100 µM (inactive); in assay [6] it was > 100 µM (inactive). For the same molecule, the GI50 is > 100 µM (inactive) in assay [7]; > 100 µM (inactive) in assay [8]; 93.3 µM (inactive) in [9]; > 100 µM (inactive) in [10]; > 100 µM (inactive) in assay [11]; > 100 µM (inactive) in assay [12]. Also, the GI50 in [13], in [14], in assay [15], in assay [16], in assay [17] and in [18] was > 100 µM (inactive) throughout. Besides, the figures for the GI50 in assay [19] and in assay [20] were 45.4 µM (inactive) and > 100 µM (inactive), respectively.

For the molecule `O=C1C2CC[C@@H]3C(=O)C(Cl)(Cl)[C@@H]3CCC2C1(Cl)Cl` (stereo not given in full), the GI50 in assay [1] is > 100 µM (inactive); in [2], > 100 µM (inactive); in [3] it was 98.6 µM; in assay [4], 26.9 µM (inactive); in assay [5], > 100 µM (inactive); in assay [6], > 100 µM (inactive). Moreover, the GI50 in [7] is 42.8 µM (inactive); in assay [8], > 86.9 µM (inactive); in assay [9], > 100 µM (inactive); in assay [10] it was > 100 µM (inactive); in assay [11] it was > 100 µM (inactive); in assay [12], > 86.5 µM (inactive). In addition, the GI50 in assay [13] was > 100 µM (inactive); in assay [14], > 100 µM (inactive); in [15], > 100 µM (inactive); in [16], 46.6 µM (inactive); in [17], 6.17 µM (inactive); in [18] it was > 100 µM (inactive). For the same molecule, the GI50 in assay [19] and in assay [20] was > 100 µM (inactive) in each case.

On to `CC1=CCC[C@]2(C)C1=CC(=O)O[C@H]2c1ccoc1`, for which the GI50 in [1] was 44.6 µM (inactive); in assay [2], > 100 µM (inactive); in assay [3] it was greater than 100 µM; in assay [4], > 100 µM (inactive); in assay [5] it was > 100 µM (inactive); in assay [6], > 100 µM (inactive). Further, the GI50 in assay [7], in [8], in assay [9], in [10], in assay [11] and in [12] was > 100 µM (inactive) throughout. The GI50 in assay [13] was > 100 µM (inactive); in assay [14], > 100 µM (inactive); in [15], 23.6 µM (inactive); in [16], > 100 µM (inactive); in assay [17], 49.8 µM (inactive); in assay [18], > 100 µM (inactive). Moreover, the GI50 in assay [19] and in assay [20] was > 100 µM (inactive) each time.

With `O=C(c1ccccc1)N1CCN(C(=S)N(C(=O)c2ccccc2)c2ccccc2)C1=S`, the GI50 in assay [1] is 2.56 µM (inactive); in assay [2], 8.49 µM (inactive); in [3], 2.18 µM; in assay [4] it was 2.07 µM (inactive); in assay [5] it was 3.27 µM (inactive); in assay [6], 5.13 µM (inactive). Besides, the GI50 in assay [7] was 3.13 µM (inactive); in assay [8], 3.76 µM (inactive); in [9], 6.37 µM (inactive); in assay [10] it was 2.09 µM (inactive); in [11] it was 4.02 µM (inactive); in assay [12] it was 3.4 µM (inactive). The GI50 in [13] was 4.6 µM (inactive); in [14] it was 3.18 µM (inactive); in assay [15], 13.3 µM (inactive); in assay [16] it was 4.21 µM (inactive); in assay [17], 2.25 µM (inactive); in [18], 15.9 µM (inactive). The GI50 in [19] is 3.1 µM (inactive); in assay [20] it was 12.6 µM (inactive).

As for `O=C(OC1C#CCSCC#C/C=C\1)c1cnc2ccccc2n1` (stereo not given), the GI50 in assay [1] was > 100 µM (inactive); in assay [2], > 100 µM (inactive); in [3], greater than 100 µM; in assay [4] it was 12.2 µM (inactive); in assay [5] it was > 100 µM (inactive); in assay [6], > 100 µM (inactive). The GI50 was > 100 µM (inactive) in [7]; > 100 µM (inactive) in [8]; > 100 µM (inactive) in assay [9]; 0.461 µM (active) in assay [10]; 40 µM (inactive) in assay [11]; > 100 µM (inactive) in [12]. Also, the GI50 was > 100 µM (inactive) in assay [13]; > 100 µM (inactive) in assay [14]; > 100 µM (inactive) in assay [15]; > 100 µM (inactive) in assay [16]; 30.6 µM (inactive) in assay [17]; > 100 µM (inactive) in assay [18]. Further, the GI50 is 29.8 µM (inactive) in assay [19] and > 100 µM (inactive) in assay [20].
